Reference: patent publication US8039458B2, “HIV integrase inhibitors” (priority 2005, dated 2011)

Columns and labels:
[1] = system: recombinant NL-Rluc virus; assay: Inhibition of HIV replication (NL-RLuc virus, Renilla luciferase); assay type: cell-based; details: Human immunodeficiency virus 1, read-out: antiviral actitively
HIV-Integrase = molecular target: T1, HIV-Integrase (Human immunodeficiency virus type 1 group M subtype B, UniProt P12497); assay: HIV-Integrase binding assay (competition with [3H]-compound I, SPA); details: competitive binding vs [3H]-compound I to purified integrase; Ki by Cheng and Prusoff; read-out: in vitro binding
T1 construct: Recombinant integrase (0.26 ng) was incubated with the beads
Protocol: HIV-Integrase Inhibition Activity. To evaluate in-vitro activity against HIV-integrase, 5 pmole of biotin labeled substrate DNA was bound to 100 μg of Streptavidin coated PVT SPA beads (Amersham Pharmacia Biotech). Recombinant integrase (0.26 ng) was incubated with the beads for 90 min at 37° C. Unbound enzyme was removed by washing the complex followed by addition of inhibitors and 0.1 fmol of P33 labeled target DNA. The reaction was stopped by adding EDTA to a final concentration of 10 mM. Samples were counted in TopCountNXT (Packard) and the CPM was used as a measure of integration. The reaction condition was as described in A. Engelman and R. Craigie, J. Virol. 69, 5908-5911 (1995). The sequences of substrate and target DNA were described in Nucleic Acid Research 22,1121-1122 (1994).
HIV-Integrase binding assay. In this assay competitive binding experiments with test compounds and a radiolabeled integrase inhibitor (compound I) are performed against purified integrase. SPA bead/DNA/enzyme complexes were prepared as for the integrase inhibition assay except, to each well, 0.69 μl of integrase enzyme ([…]) was used per 2 μl of LTR DNA-attached scintillation proximity beads (stock 50 mg/ml). Binding reactions were carried out in 96-well white polystyrene assay plates (Corning, #3600). The following was added sequentially to each well: 20 μl of water or 20 μl of human serum (Cellgro Cat# 35-060-CL), 5 μl of serially diluted compound (in 50% DMSO/50% integrase SPA buffer), 5 μl of [^3H]-compound I (6,000 cpm/μl in SPA buffer) and 20 μl of bead/DNA/enzyme complex. The plates were shaken for 2 hours and then allowed to sit at room temperature without shaking overnight. The [^3H]-compound I binding was measured using a Topcount scintillation counter. Cheng and Prusoff equations were used to convert the inhibition of compound 1 binding into the corresponding Ki value. Activity equal to A refers to a compound having Ki=0.001 to 0.003 μM while B and C denote compounds having Ki=0.003 to 0.05 μM and Ki≧0.050 μM respectively.

In the case of `Cc1nc(C)n(-c2cc(F)ccc2CNC(=O)c2nc3n(c(=O)c2O)CCOCC32CCC2)n1` [Example 11, N-((2-(3,5-dimethyl-1H-1,2,4-triazol-1-yl)-4-fluorophenyl)methyl)-3′-hydroxy-4′-oxo-6′,7′-dihydro-4′H-spiro[cyclobutane-1,10′-pyrimido[1,2-d][1,4]oxazepine]-2′-carboxamide], the EC50 [1] is reported as 1 to 10 nM and the Ki (HIV-Integrase) is reported as 3 to 50 nM.
`O=C(NCc1ccc(F)cc1)c1nc2n(c(=O)c1O)CCOCC21CCCC1` [Example 12, N-((4-fluorophenyl)methyl)-3′-hydroxy-4′-oxo-6′,7′-dihydro-4′H-spiro[cyclopentane-1,10′-pyrimido[1,2-d][1,4]oxazepine]-2′-carboxamide] was tested, and the EC50 [1] was 1 to 10 nM and the Ki (HIV-Integrase) was 1 to 3 nM.
Work on `CS(=O)(=O)c1cc(F)ccc1CNC(=O)c1nc2n(c(=O)c1O)CCOCC21CCCC1` [Example 13, N-((4-fluoro-2-(methylsulfonyl)phenyl)methyl)-3′-hydroxy-4′-oxo-6′,7′-dihydro-4′H-spiro[cyclopentane-1,10′-pyrimido[1,2-d][1,4]oxazepine]-2′-carboxamide] yielded an EC50 [1] of 1 to 10 nM and a Ki (HIV-Integrase) of 1 to 3 nM.
In the case of `O=C(NCc1ccc(F)cc1-n1cncn1)c1nc2n(c(=O)c1O)CCOCC21CCCC1` [Example 14, N-((4-fluoro-2-(1H-1,2,4-triazol-1-yl)phenyl)methyl)-3′-hydroxy-4′-oxo-6′,7′-dihydro-4′H-spiro[cyclopentane-1,10′-pyrimido[1,2-d][1,4]oxazepine]-2′-carboxamide], the EC50 [1] is reported as 1 to 10 nM and the Ki (HIV-Integrase) is reported as 1 to 3 nM.
With `Cn1nnc(-c2cc(F)ccc2CNC(=O)c2nc3n(c(=O)c2O)CCOCC32CCCC2)n1` [Example 15, N-((4-fluoro-2-(2-methyl-2H-tetrazol-5-yl)phenyl)methyl)-3′-hydroxy-4′-oxo-6′,7′-dihydro-4′H-spiro[cyclopentane-1,10′-pyrimido[1,2-d][1,4]oxazepine]-2′-carboxamide] the EC50 [1] was 1 to 10 nM and the Ki (HIV-Integrase) was 1 to 3 nM.
`CC1(C)COCCn2c1nc(C(=O)NCc1ccc(F)cc1N1CCCC1=O)c(O)c2=O` [Example 16, N-((4-fluoro-2-(2-oxo-1-pyrrolidinyl)phenyl)methyl)-3-hydroxy-10,10-dimethyl-4-oxo-6,7,9,10-tetrahydro-4H-pyrimido[1,2-d][1,4]oxazepine-2-carboxamide] showed an EC50 [1] of 1 to 10 nM and a Ki (HIV-Integrase) of 1 to 3 nM.
For `COP(=O)(OC)c1cc(F)ccc1CNC(=O)c1nc2n(c(=O)c1O)CCOCC2(C)C` [Example 17, Dimethyl (5-fluoro-2-((((3-hydroxy-10,10-dimethyl-4-oxo-6,7,9,10-tetrahydro-4H-pyrimido[1,2-d][1,4]oxazepin-2-yl)carbonyl)amino)methyl)phenyl)-phosphonate], the EC50 [1] was 1 to 10 nM and the Ki (HIV-Integrase) was 3 to 50 nM.
In the case of `Cc1nnn(-c2cc(F)ccc2CNC(=O)c2nc3n(c(=O)c2O)CCOCC3(C)C)c1C` [Example 18, N-(2-(4,5-Dimethyl-1H-1,2,3-triazol-1-yl)-4-fluorobenzyl)-3-hydroxy-10,10-dimethyl-4-oxo-6,7,9,10-tetrahydro-4H-pyrimido[1,2-d][1,4]oxazepine-2-carboxamide], the EC50 [1] is reported as 1 to 10 nM and the Ki (HIV-Integrase) is reported as 3 to 50 nM.
`Cc1cnnn1-c1cc(F)ccc1CNC(=O)c1nc2n(c(=O)c1O)CCOCC2(C)C` [Example 19, N-(4-fluoro-2-(5-methyl-1H-1,2,3-triazol-1-yl)benzyl)-3-hydroxy-10,10-dimethyl-4-oxo-6,7,9,10-tetrahydro-4H-pyrimido[1,2-d][1,4]oxazepine-2-carboxamide] was tested, and the EC50 [1] was 1 to 10 nM and the Ki (HIV-Integrase) was 3 to 50 nM.
With `CC1(C)COCCn2c1nc(C(=O)NCc1ccc(F)cc1-n1ncnc1-c1ccccc1)c(O)c2=O` [Example 20, N-((4-fluoro-2-(5-phenyl-1H-1,2,4-triazol-1-yl)phenyl)methyl)-3-hydroxy-10,10-dimethyl-4-oxo-6,7,9,10-tetrahydro-4H-pyrimido[1,2-d][1,4]oxazepine-2-carboxamide] the EC50 [1] was > 50 nM and the Ki (HIV-Integrase) was ≥ 50 nM.
Work on `Cc1ncn(-c2cc(F)ccc2CNC(=O)c2nc3n(c(=O)c2O)CCOCC32CCCC2)n1` [Example 21, N-((4-fluoro-2-(3-methyl-1H-1,2,4-triazol-1-yl)phenyl)methyl)-3′-hydroxy-4′-oxo-6′,7′-dihydro-4′H-spiro[cyclopentane-1,10′-pyrimido[1,2-d][1,4]oxazepine]-2′-carboxamide] yielded an EC50 [1] of 1 to 10 nM and a Ki (HIV-Integrase) of 1 to 3 nM.
In the case of `CCc1ncnn1-c1cc(F)ccc1CNC(=O)c1nc2n(c(=O)c1O)CCOCC21CCCC1` [Example 22, N-((2-(5-ethyl-1H-1,2,4-triazol-1-yl)-4-fluorophenyl)methyl)-3′-hydroxy-4′-oxo-6′,7′-dihydro-4′H-spiro[cyclopentane-1,10′-pyrimido[1,2-d][1,4]oxazepine]-2′-carboxamide], the EC50 [1] is reported as 1 to 10 nM and the Ki (HIV-Integrase) is reported as 3 to 50 nM.
`Cc1ncnn1-c1cc(F)ccc1CNC(=O)c1nc2n(c(=O)c1O)CCOCC21CCCC1` [Example 23, N-((4-fluoro-2-(5-methyl-1H-1,2,4-triazol-1-yl)phenyl)methyl)-3′-hydroxy-4′-oxo-6′,7′-dihydro-4′H-spiro[cyclopentane-1,10′-pyrimido[1,2-d][1,4]oxazepine]-2′-carboxamide] was tested, and the EC50 [1] was 1 to 10 nM and the Ki (HIV-Integrase) was 1 to 3 nM.
In the case of `Cc1nc(C)n(-c2cc(F)ccc2CNC(=O)c2nc3n(c(=O)c2O)CCOCC32CCCC2)n1` [Example 24, N-((2-(3,5-dimethyl-1H-1,2,4-triazol-1-yl)-4-fluorophenyl)methyl)-3′-hydroxy-4′-oxo-6′,7′-dihydro-4′H-spiro[cyclopentane-1,10′-pyrimido[1,2-d][1,4]oxazepine]-2′-carboxamide], the EC50 [1] is reported as 1 to 10 nM and the Ki (HIV-Integrase) is reported as 3 to 50 nM.
In the case of `O=C(NCc1ccc(F)cc1-n1cnc(CO)n1)c1nc2n(c(=O)c1O)CCOCC21CCOCC1` [Example 25, N-((4-fluoro-2-(3-(hydroxymethyl)-1H-1,2,4-triazol-1-yl)phenyl)methyl)-3′-hydroxy-4′-oxo-2,3,5,6,6′,7′-hexahydro-4′H-spiro[pyran-4,10′-pyrimido[1,2-d][1,4]oxazepine]-2′-carboxamide], the EC50 [1] is reported as > 50 nM and the Ki (HIV-Integrase) is reported as 3 to 50 nM.
`COCc1ncn(-c2cc(F)ccc2CNC(=O)c2nc3n(c(=O)c2O)CCOCC32CCOCC2)n1` [Example 26, N-((4-fluoro-2-(3-((methyloxy)methyl)-1H-1,2,4-triazol-1-yl)phenyl)methyl)-3′-hydroxy-4′-oxo-2,3,5,6,6′,7′-hexahydro-4′H-spiro[pyran-4,10′-pyrimido[1,2-d][1,4]oxazepine]-2′-carboxamide] gave an EC50 [1] of 10 to 50 nM and a Ki (HIV-Integrase) of 3 to 50 nM.
Compound `Cn1cnn(-c2cc(F)ccc2CNC(=O)c2nc3n(c(=O)c2O)CCOCC32CCOCC2)c1=O` [Example 27, N-(4-Fluoro-2-(4-methyl-5-oxo-4,5-dihydro-1H-1,2,4-triazol-1-yl)benzyl)-3′-hydroxy-4′-oxo-2,3,4′,5,6,6′,7′,9′-octahydrospiro[pyran-4,10′-pyrimido[1,2-d][1,4]oxazepine]-2′-carboxamide] has an EC50 [1] of 1 to 10 nM and a Ki (HIV-Integrase) of 3 to 50 nM.
`Cc1nn(-c2cc(F)ccc2CNC(=O)c2nc3n(c(=O)c2O)CCOCC32CCOCC2)c(=O)n1C` [Example 28, N-(2-(3,4-dimethyl-5-oxo-4,5-dihydro-1H-1,2,4-triazol-1-yl)-4-fluorobenzyl)-3′-hydroxy-4′-oxo-2,3,4′,5,6,6′,7′,9′-octahydrospiro[pyran-4,10′-pyrimido[1,2-d][1,4]oxazepine]-2′-carboxamide] gave an EC50 [1] of 1 to 10 nM and a Ki (HIV-Integrase) of 3 to 50 nM.
`O=C(NCc1ccc(F)cc1)c1nc2n(c(=O)c1O)CCOCC21CCOCC1` [Example 32, N-((4-fluorophenyl)methyl)-3′-hydroxy-4′-oxo-2,3,5,6,6′,7′-hexahydro-4′H-spiro[pyran-4,10′-pyrimido[1,2-d][1,4]oxazepine]-2′-carboxamide] was tested, and the EC50 [1] was 10 to 50 nM and the Ki (HIV-Integrase) was 3 to 50 nM.
In the case of `CNC(=O)c1cc(F)ccc1CNC(=O)c1nc2n(c(=O)c1O)CCOCC21CCOCC1` [Example 33, N-((4-fluoro-2-((methylamino)carbonyl)phenyl)methyl)-3′-hydroxy-4′-oxo-2,3,5,6,6′,7′-hexahydro-4′H-spiro[pyran-4,10′-pyrimido[1,2-d][1,4]oxazepine]-2′-carboxamide], the EC50 [1] is reported as 1 to 10 nM and the Ki (HIV-Integrase) is reported as 3 to 50 nM.
Compound `O=C(NCc1ccc(F)cc1-n1cncn1)c1nc2n(c(=O)c1O)CCOCC21CCOCC1` [Example 34, N-((4-fluoro-2-(1H-1,2,4-triazol-1-yl)phenyl)methyl)-3′-hydroxy-4′-oxo-2,3,5,6,6′,7′-hexahydro-4′H-spiro[pyran-4,10′-pyrimido[1,2-d][1,4]oxazepine]-2′-carboxamide] has an EC50 [1] of 1 to 10 nM and a Ki (HIV-Integrase) of 1 to 3 nM.
